Activity calls are given as the source filed them. The calls are words filed in the database; no cut-off is given here.
Tests used:
[1] = tested on: Spodoptera littoralis; assay: Change in pupal weight of Spodoptera littoralis fed with diet containing compound at 110 umol/gm dry weight treated for 6 days measured after transferring onto control diet by chronic feeding bioassay (reference value: 0.40 +/-0.05 gms); type: functional
[2] = tested on: Spodoptera littoralis; assay: Prolongation of duration of larval period in Spodoptera littoralis fed with diet containing compound at 110 umol/gm dry weight treated for 6 days measured after transferring onto control diet by chronic feeding bioassay (reference value: 17 to 20 days); type: functional
[3] = tested on: Spodoptera littoralis; assay: Toxicity against neonate larval stage of Spodoptera littoralis fed with diet containing compound assessed as reduction in larval survival at 15 to 110 umol/gm dry weight after 6 days by chronic feeding assay; type: functional, organism-based
[4] = tested on: Spodoptera littoralis; assay: Growth retarding activity against neonate larval stage of Spodoptera littoralis fed with diet containing compound measured per gm of dry weight after 6 days by chronic feeding bioassay; type: functional; details: 144 h, read-out: ED50
[5] = tested on: Spodoptera littoralis; assay: Growth retarding activity against neonate larval stage of Spodoptera littoralis fed with diet containing compound assessed as larval weight at 104 umol/gm dry weight after 6 days by chronic feeding bioassay (reference value: 100%); type: functional
[6] = tested on: Spodoptera littoralis; assay: Induction of imago developmental aberrations with imperfect wings in Spodoptera littoralis fed with diet containing compound at 110 umol/gm dry weight treated for 6 days measured after transferring onto control diet by chronic feeding bioassay; type: functional
[7] = tested on: Spodoptera littoralis; assay: Reduction in number of imagoes emerging from pupae in Spodoptera littoralis fed with diet containing compound at 110 umol/gm dry weight after 6 days by chronic feeding bioassay (reference value: 90%); type: functional; design: scale not given: the % may be the effect or the level left
[8] = tested on: Spodoptera littoralis; assay: Growth retarding activity against neonate larval stage of Spodoptera littoralis fed with diet containing compound assessed as larval weight at 70 umol/gm dry weight after 6 days by chronic feeding bioassay (reference value: 100%); type: functional
[9] = tested on: Spodoptera littoralis; assay: Growth retarding activity against neonate larval stage of Spodoptera littoralis fed with diet containing compound assessed as larval weight after 6 days by chronic feeding bioassay (reference value: 100%); type: functional
[10] = tested on: Spodoptera littoralis; assay: Growth retarding activity against neonate larval stage of Spodoptera littoralis fed with diet containing compound assessed as larval weight at 94 umol/gm dry weight after 6 days by chronic feeding bioassay (reference value: 100%); type: functional
[11] = tested on: Spodoptera littoralis; assay: Toxicity against neonate larval stage of Spodoptera littoralis fed with diet containing compound assessed as reduction in larval survival measured per gm dry weight after 6 days by chronic feeding assay; type: functional; details: 144 h, read-out: ED50
[12] = tested on: Spodoptera littoralis; assay: Growth retarding activity against neonate larval stage of Spodoptera littoralis fed with diet containing compound assessed as larval weight at 41 umol/gm dry weight after 6 days by chronic feeding bioassay (reference value: 100%); type: functional

Structure (SMILES) | Activity [1] | Time [2] | Activity [3] | EC50 [4] | further results
COc1cc(C)c2c(c1C=O)Oc1c(c(C)c(O)c3c1C(O)OC3=O)OC2=O (stereo not drawn) [STICTIC ACID] | 0.41 g | 20 days | inactive | 57.5 µmol/g | Activity [5]: 27%
O=C1O/C(=C2/C(=O)Oc3ccccc32)C(O)=C1c1ccccc1 [CALYCIN] | 0.33 g | 21 days | inactive | 37.6 µmol/g | Activity [6]: 44%
COC(=O)C(Cc1ccccc1)NC(=O)/C(=C1/OC(=O)C(c2ccccc2)=C1O)c1ccccc1 (stereo not drawn) [RHIZOCARPIC ACID] | 0.28 g | 19 days | inactive | 70.8 µmol/g | Activity [7]: 25%
COC(=O)/C(=C1/OC(=O)C(c2ccccc2)=C1O)c1ccccc1 [VULPINIC ACID] | 0.32 g | 23 days | inactive | 17.2 µmol/g | Activity [6]: 14%
COc1cc(C(=O)O)c2c(c1C)OC(=O)c1c(C)cc(O)c(C=O)c1O2 [PSOROMIC ACID] | 0.41 g | 20 days | inactive | 46.2 µmol/g | –
CCCCCC(=O)Cc1cc(O)cc2c1C(=O)Oc1cc(O)c(C(=O)O)c(CCCCC)c1O2 [PHYSODIC ACID] | – | – | inactive | > 110 µmol/g | –
COC(=O)c1c(C)cc(OC(=O)c2c(C)cc(O)c(C=O)c2O)c(C)c1O [ATRANORIN] | – | – | inactive | > 110 µmol/g | Activity [8]: 52%; Activity [9]: 51%
Cc1cc(O)c(C=O)c2c1C(=O)Oc1c(C)c(O)c3c(c1O2)C(O)OC3=O (stereo not drawn) [NORSTICTIC ACID] | 0.33 g | 17 days | inactive | 32 µmol/g | Activity [10]: 18%; Activity [9]: 18%
O=C1OC2=C(c3ccccc3)C(=O)OC2=C1c1ccccc1 [PULVINIC DILACTONE] | – | – | inactive | > 110 µmol/g | –
COc1cc(C)c(C(=O)Oc2cc(C)c(C(=O)O)c(O)c2)c(O)c1 [EVERNIC ACID] | – | – | inactive | > 110 µmol/g | –
Cc1cc(O)c(C=O)c2c1C(=O)Oc1c(CO)c(O)c3c(c1O2)C(O)OC3=O (stereo not drawn) [SLAZINIC ACID] | 0.4 g | 24 days | inactive | 29.2 µmol/g | –
CC(=O)C1=C(O)C=C2Oc3c(C(C)=O)c(O)c(C)c(O)c3[C@@]2(C)C1=O [(+)-USNIC ACID] | – | – | – | 4.5 µmol/g | EC50 [11]: 90.8 µmol/g
CCCCCC(=O)Cc1cc(O)c(O)c2c1C(=O)Oc1cc(O)c(C(=O)O)c(CCCCC)c1O2 [OXYPHYSODIC ACID] | 0.33 g | 19 days | inactive | 11.2 µmol/g | Activity [12]: 15%; Activity [6]: 50%
CC(=O)C1=C(O)C=C2Oc3c(C(C)=O)c(O)c(C)c(O)c3[C@]2(C)C1=O [(-)-USNIC ACID] | – | – | – | 1.2 µmol/g | EC50 [11]: 8.6 µmol/g
Cc1cc(O)c(C=O)c2c1C(=O)Oc1c(COC(=O)/C=C/C(=O)O)c(O)c(C(=O)O)c(C)c1O2 [FUMARPROTOCETRARIC ACID] | 0.45 g | 24 days | inactive | 30.5 µmol/g | –

— ChEMBL document CHEMBL3045822, “Growth retarding activity of lichen substances against the polyphagous herbivorous insect Spodoptera littoralis” (1994)
